Data as given in patent US20080254152A1, “Methods for Reducing the Effects of Stress on Skin Condition” (priority 2003, published 2008).
Entries after “also recorded” stand apart in the source; their conditions may differ.

Legend:
[1] = test system: procollagen-1 expression in human neonatal dermal fibroblast cells; experiment: Procollagen I C-peptide EIA in neonatal-derived human dermal fibroblasts after chronic dexamethasone and PMA; assay type: cell-based; settings: agent added during dexamethasone pre-treatment; dermal fibroblasts
Method: (§1) In this study, to understand better the effect of chronic stress on dermal matrix remodelling in the skin, we have therefore measured changes in markers of dermal matrix degradation (MMP-1) and dermal matrix synthesis (Procollagen I) in chronically glucocorticoid-treated primary human dermal fibroblasts, following acute stress with PMA. The experimental approach is similar to that described in example 1 except that the cells tested are dermal fibroblasts and cells are assayed for expression of procollagen-1, MMP-1 and MMP-9 expression.
(§2) Primary human dermal fibroblast cells were cultured and passaged in DMEM (Gibco) supplemented with 10% FBS (foetal bovine serum). Cells were routinely plated out in 6-well tissue culture dishes, at a seeding density of ˜5000 cells/cm^2 in 2 ml complete medium/well for 24 hours, and incubated at 37° C. in 5% CO2. Media was removed and cells grown in DMEM & 1% FBS, 24 hours prior to treatments.
(§3) Pre-treatment and test solutions were prepared in DMEM containing low serum (1% FBS). […] Following this, the cells were oxidatively stressed for 24 hours with 1 μM PMA (Sigma P8139).
Collagen I is synthesised as a precursor molecule, Procollagen I. The amount of free propeptide therefore, reflects stoichiometrically, the amount of collagen I synthesised. The Procollagen Type I C-peptide Enzyme Immunoassay (EIA) kit allows for the quantitative determination of Procollagen Type I C-peptide (PIP).
Eight PIP standards were prepared in sample diluent at concentrations ranging from 0 to 640 ng/ml. 100 μl of antibody-Peroxidase conjugate solution and 20 μl of cell lysate (1 μg protein) or standard was added to duplicate wells. The plate was sealed and incubated at 37° C. for 3 hours before being washed four times with 400 μl of PBS. Each well then received 100 μl of substrate solution and the plate incubated at room temperature, on the benchtop, for 15 minutes. After this period, 100 μl stop solution was added to each well and absorbance measured at 450 nm with a plate reader.
A standard curve was plotted of mean absorbance versus PIP concentration and the line of best fit calculated by regression analysis. The unknown concentration of PIP in all the samples was estimated from this.
(§4) The same methods were used as described in Example 2, except that various test agents were added to the cells during the pre-treatment period.

[2] = test system: ICAM-1 expression in HUVECs; experiment: ICAM-1 expression in HUVECs pre-treated 5 days with dexamethasone, then oxidatively stressed with PMA (ELISA); assay type: cell-based, Human; settings: then 1 μM PMA, HUVEC
Method: An in vitro model has been developed to investigate the impact of chronic stress on the inflammatory status of endothelial cells. • a. Cells are grown in 6-well (9.5 cm^2) plates. • b. […] Tissue culture supernatant and cell pellets are harvested at timepoint T0. • d. The cells are oxidatively stressed with 1 μM Phorbol Myristate Acetate (PMA). • e. Tissue culture supernatant and cell pellets were harvested at 6, 24 and 48 hours (T6, T24 and T48, respectively) post-PMA treatment. • f. All tissue culture supernatant was assayed for Lactate Dehydrogenase (LDH), as a measure of cytotoxicity, and Interleukin-6 synthesis. • g. All cells were counted (Beckman Coulter Counter) and pelleted and cell lysate assayed for ICAM-1 expression (Intra Cellular Adhesion Molecule 1).
HUVEC cells (Human umbilical vein endothelial cells, TCS Biologicals) were cultured and passaged in EGM-2 (Endothelial growth medium, Biowhittaker) supplemented with heparin, VEGF (vascular endothelial growth factor), gentamicin sulphate, ascorbic acid, HEGF (Human endothelial growth factor), hydrocortisone, HFGF-B (Human fibroblast growth factor B), R3-IGF-1 (long R insulin-like growth factor 1) and FBS (foetal bovine serum).
Cells were routinely plated out in 6-well tissue culture dishes, at a seeding density of ˜5000 cells/cm^2 in 2 ml complete medium/well, 48 hours before starting the experiment, and incubated at 37° C. in 5% CO2.
Pre-treatment and test solutions were prepared in EGM-2 containing all supplements except hydrocortisone.
Following this, the cells were oxidatively stressed for 24 hours with 1 μM PMA (Sigma P8139).
Receptor antagonists were added to the cells during the pre-treatment period. These included the Glucocorticoid Receptor Antagonist; 2 μM Mifepristone (Sigma M8046) and two CRH receptor antagonists; 200 nM Astressin (Sigma A4933) and 200 nM α-helical CRF peptide antagonist (Sigma C2917).
Any change in cell morphology was noted before the cells were harvested. Both the tissue culture supernatant and the endothelial cells were harvested after the five-day pre-treatment period (T0), at 6 hours and 24 hours after addition of PMA (T6 and T24) and at 24 hours after removal of the PMA (T48). All tissue culture supernatants were stored at −20° C.
All cell pellets were lysed on ice for 30 minutes in 1 ml cell lysis buffer per 2.5×10^6 cells. The lysis buffer contained 1% NP-40, 0.1% sodium deoxycholate, 0.1% SDS, 6 mM sodium chloride and 0.05M Tris at pH 7.6. Protease inhibitor cocktail ([…]; Sigma P8340) was added prior to use at a level of 10 μl per ml of lysis buffer. The partially lysed cell pellets were completely homogenised with a pellet pestle and unwanted cell debris removed by centrifugation for 20 minutes at 20,000 g at 4° C. The clarified cell lysate was frozen at −80° C. until needed.
The total protein concentration of each cell lysate was measured using the Pierce BCA protein assay kit. A set of eight standard solutions ranging from 0 to 1200 μg/ml protein was prepared from the supplied 2 mg/ml BSA stock solution. 10 μl of standard or cell lysate was added to duplicate wells of a flat-bottomed, 96-well microtitre plate. The reagent solution was prepared according to the kit instructions from 50 parts reagent A and 1 part reagent B. 200 μl of the final reagent was added to each well of the microtitre plate. The plate was mixed, covered and incubated at 37° C. for 30 minutes and absorbance read at 562 nm.
ICAM-1 protein in each cell lysate was estimated using the Human sICAM-1 DuoSet ELISA kit (R&D Systems DY720) according to the manufacturer's instructions.
The capture antibody was diluted to a final concentration of 4 μg/ml in PBS and 100 μl was used to coat each well of a 96-well microtitre plate overnight at room temperature. The plate was then washed three times with wash buffer (0.05% Tween 20 in PBS).

[3] = test system: MMP-1 expression in human neonatal dermal fibroblast cells; experiment: Active MMP-1 in neonatal-derived human dermal fibroblasts after chronic dexamethasone and PMA; assay type: cell-based; settings: agent added during dexamethasone pre-treatment; dermal fibroblasts
Method: as §1, §2, §3
MMP-1 and MMP-9 protein in each cell supernatant was estimated using the Human active MMP-1 and MMP-9 Fluorokine enzyme kit (R&D Systems F1M00 and F9M00, respectively), according to the manufacturer's instructions.
Six MMP-1 and MMP-9 standards were prepared in calibrator diluent at concentrations ranging from 0.39 to 12.5 ng/ml and 0.25 to 16 ng/ml, respectively. 100 μl of assay diluent and 150 μl of tissue culture supernatant or standard was added to duplicate wells. The plate was incubated at room temperature for 3 hours on a horizontal orbital plate shaker before being washed four times with wash buffer. 200 μl of APMA was added to each well and the plate incubated at 37° C. for 2 hours in a humidified environment and protected from the light. The plate was washed as before. Each well received 200 μl of substrate solution and the plate incubated at 37° C. for 17-20 hours in a humidified environment and protected from the light. The relative fluorescence unit (RFU) of each well was determined using a fluorescence plate set with 1×20 mS integration time, plate speed ˜6; excitation wavelength set to 320 nm and emission wavelength set to 405 nm.
A standard curve was plotted of mean RFU versus MMP-1 and MMP-9 concentration (respectively), and the line of best fit calculated by regression analysis. The unknown concentration of either active MMP-1 or MMP-9 protein in all of the samples was estimated from this.
as §4

[4] = agent 1 μM during 5-day 1 μM dexamethasone pre-treatment
[5] = agent 10 μM during 5-day 1 μM dexamethasone pre-treatment

Compound | Effect on glucocorticoid effects on levels of procollagen expression following PMA-induced acute stress [1] | Effective? (suppression of ICAM-1 synthesis in chronically stressed endothelial cells) [2, 4] | Effect on glucocorticoid effects on levels of MMP-1 expression following PMA-induced acute stress [3] | Effective? (suppression of ICAM-1 synthesis in chronically stressed endothelial cells) [2, 5] | further results
COc1cc(/C=C/C(=O)CC(=O)/C=C/c2ccc(O)c(OC)c2)ccc1O [Curcumin] | inhibited the effects of glucocorticoid | Yes | inhibited the effects of glucocorticoid |  | 
Alliin |  |  |  | No | 
C=C1[C@@H](O)[C@@H]2O[C@]3(CC[C@H](/C=C/[C@@H](C)[C@@H]4CC(C)=C[C@@]5(O[C@H](C[C@@](C)(O)C(=O)O)CC[C@H]5O)O4)O3)CC[C@H]2O[C@@H]1[C@@H](O)C[C@H](C)[C@H]1O[C@@]2(CCCCO2)CC[C@H]1C [Okadaic acid] |  |  |  |  | Effective? (suppression of ICAM-1 synthesis in chronically stressed endothelial cells) ([2]; agent 1 nM during 5-day 1 μM dexamethasone pre-treatment): Yes
CC(C)CC[C@@H](O)[C@@H](C)[C@H]1CC[C@H]2[C@@H]3CC=C4C[C@@H](O)CC[C@]4(C)[C@H]3CC[C@]12C [22-OH-cholesterol, 22-(R)-Hydroxycholesterol] |  | Yes |  |  | 
Mevinolin |  | Yes |  |  | 
CC(C)=CCC[C@](C)(O[C@@H]1O[C@H](CO[C@@H]2O[C@H](CO)[C@@H](O)[C@H](O)[C@H]2O)[C@@H](O)[C@H](O)[C@H]1O)[C@H]1CC[C@]2(C)[C@@H]1[C@H](O)C[C@@H]1[C@@]3(C)CC[C@H](O[C@@H]4O[C@H](CO)[C@@H](O)[C@H](O)[C@H]4O[C@@H]4O[C@H](CO)[C@@H](O)[C@H](O)[C@H]4O)C(C)(C)[C@@H]3CC[C@]12C [Ginsenoside Rb1] | inhibited the effects of glucocorticoid | Yes | inhibited the effects of glucocorticoid |  | 
CC#C[C@]1(O)CC[C@H]2[C@@H]3CCC4=CC(=O)CCC4=C3[C@@H](c3ccc(N(C)C)cc3)C[C@@]21C [Mifepristone] |  |  |  |  | ICAM-1 expression compared with cells without chronic GC treatment ([2]; 2 μM mifepristone during chronic 1 μM glucocorticoid pre-treatment): below that seen in cells that had not received chronic GC treatment; Effect on oxidative stress-induced increase in ICAM-1 expression ([2]; 2 μM mifepristone during chronic 1 μM glucocorticoid pre-treatment, FIG. 3): significant reduction; also recorded: completely blocked
Oc1ccc(C=Cc2cc(O)cc(O)c2)cc1 [Resveratrol] |  |  |  | No | 
CCNC(=O)CC[C@H](N)C(=O)O [Theanine] |  |  |  | No | 
C/C(=C\CC/C(C)=C/CCC1[C@](C)(O)CC[C@H]2C(C)(C)C(=O)CC[C@]12C)CC/C=C(\C)C(=O)O (stereo partly shown) [Commipheric acid] | inhibited the effects of glucocorticoid |  | inhibited the effects of glucocorticoid |  | Effective? (suppression of ICAM-1 synthesis in chronically stressed endothelial cells) ([2]; agent 10 μg/ml during 5-day 1 μM dexamethasone pre-treatment): Yes
CC(C)=CCC[C@](C)(O[C@@H]1O[C@H](CO[C@@H]2O[C@@H](CO)[C@H](O)[C@H]2O)[C@@H](O)[C@H](O)[C@H]1O)[C@H]1CC[C@]2(C)[C@@H]1[C@H](O)C[C@@H]1[C@@]3(C)CC[C@H](O[C@@H]4O[C@H](CO)[C@@H](O)[C@H](O)[C@H]4O[C@@H]4O[C@H](CO)[C@@H](O)[C@H](O)[C@H]4O)C(C)(C)[C@@H]3CC[C@]12C [Ginsenoside Rc] | inhibited the effects of glucocorticoid | Yes | inhibited the effects of glucocorticoid |  | 
O=C(O)/C=C/c1ccc(O)c(O)c1 [Caffeic acid] |  |  |  |  | Effective? (suppression of ICAM-1 synthesis in chronically stressed endothelial cells) ([2]; agent 150 μM during 5-day 1 μM dexamethasone pre-treatment): No
Cc1cccc(Nc2cc(Cl)nc(SCC(=O)O)n2)c1C [WY14643] |  |  |  | No | 
